This passage reports IC50 and ΔTm results from ChEMBL document CHEMBL4261582, “Natural products as inhibitors of Leishmania major dihydroorotate dehydrogenase” (Eur J Med Chem, 2018).

The structures appear in SMILES notation.

The test system of the first experiment is Leishmania amazonensis. Nature of the experiment: Antileishmanial activity against Leishmania amazonensis MHOM/77BR/LTB0016 promastigotes after 72 hrs by MTT assay. It counts as functional, organism-based. As to conditions: MHOM/77BR/LTB0016, 72 h. In general terms: Tetrazolium assays rely on reduction of a dye to a coloured formazan, in cell work by metabolically active cells.
What is called IC50 is the concentration that gives 50% inhibition. `COc1cc(/C=C/C(=O)O)ccc1O` [FERULATE] registered a half-inhibitory concentration (IC50) of 1.7 µM.

For the next experiment, the system named is Leishmania amazonensis. Nature of the experiment: Antileishmanial activity against Leishmania amazonensis MHOM/77BR/LTB0016 amastigotes infected in mouse peritoneal macrophages after 48 hrs by Giemsa staining-based assay. It counts as functional, organism-based. As to conditions: MHOM/77BR/LTB0016, 48 h.
For the compound `COc1cc(/C=C/C(=O)O)ccc1O` [FERULATE], half-maximal inhibition (IC50) was put at 7.9 µM.
On the same count and under the same terms, next, `O=C(O)/C=C/c1ccccc1O` [O-COUMARIC ACID]: 13.8 µM.
Still for that read-out and setting: next, `C[C@@H]1O[C@@H](OC[C@H]2O[C@@H](Oc3c(-c4ccc(O)c(O)c4)oc4cc(O)cc(O)c4c3=O)[C@H](O)[C@@H](O)[C@@H]2O)[C@H](O)[C@H](O)[C@H]1O` [RUTIN]: 4.4 µM.

The target in a further experiment is T1, Dihydroorotate dehydrogenase (fumarate) (Leishmania major) (UniProt Q4QEW7).
T1 sequence (whole entry): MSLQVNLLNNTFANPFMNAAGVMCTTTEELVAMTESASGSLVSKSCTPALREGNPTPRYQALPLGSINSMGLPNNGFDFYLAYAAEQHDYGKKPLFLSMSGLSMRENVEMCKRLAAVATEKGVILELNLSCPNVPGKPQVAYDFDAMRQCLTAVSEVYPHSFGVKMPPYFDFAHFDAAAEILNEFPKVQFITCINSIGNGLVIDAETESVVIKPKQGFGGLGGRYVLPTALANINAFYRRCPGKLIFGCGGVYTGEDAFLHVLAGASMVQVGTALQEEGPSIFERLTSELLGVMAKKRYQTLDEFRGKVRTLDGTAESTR
Nature of the experiment: Binding affinity to Leishmania major DHODH assessed as change in melting temperature at 500 uM by SYPRO orange dye-based differential scanning fluorimetry.
Conditions: not given
(In general: In DSF a fluorescence change marks the thermal transition of the protein.)
Usually ΔTm stands for the shift of the melting midpoint relative to a reference. On to `C=C(C)C(=O)O[C@H]1C[C@@]2(C)OC(=CC2=O)[C@@H](C)C[C@H]2OC(=O)C(=C)[C@H]12`, for which the ΔTm was -0.27 °C.
Still for that read-out and setting: under `CC[C@@H](C)[C@@]1(O)O[C@H]2C[C@@]3(C)OC(=CC3=O)/C(COC(C)=O)=C\[C@H]3OC(=O)[C@@]1(C)[C@H]23` stands -1.8 °C.
The same measure, in the same setting: under `C=C1C(=O)O[C@@H]2/C=C(/C)C3=CC(=O)[C@@](C)(C[C@@H](OC(=O)/C(C)=C/C)[C@@H]12)O3` [ATRIPLICIOLIDTIGLATE] stands -2.52 °C.

In a further experiment the test system is Trypanosoma brucei rhodesiense. Nature of the experiment: Antitrypanosomal activity against Trypanosoma brucei rhodesiense STIB 900 trypomastigotes after 72 hrs by Alamar Blue assay. It counts as functional, organism-based. As to conditions: STIB 900, 72 h. (Alamar Blue is a resazurin reagent that responds to reducing activity.)
The compound `COc1cc(/C=C/C(=O)O)ccc1O` [FERULATE] yielded an IC50 of 428 µM.
On the same count and under the same terms, next, `O=C(O)/C=C/c1ccccc1O` [O-COUMARIC ACID]: 265 µM; `C[C@@H]1O[C@@H](OC[C@H]2O[C@@H](Oc3c(-c4ccc(O)c(O)c4)oc4cc(O)cc(O)c4c3=O)[C@H](O)[C@@H](O)[C@@H]2O)[C@H](O)[C@H](O)[C@H]1O` [RUTIN]: 6.9 µM.

A further experiment deals with T1, Dihydroorotate dehydrogenase (fumarate) (Leishmania major). As to the kind of experiment: Binding affinity to Leishmania major DHODH assessed as change in melting temperature at 100 uM by SYPRO orange dye-based differential scanning fluorimetry.
Conditions: not given
As for `C=C(C)C(=O)O[C@H]1C[C@@]2(C)OC(=CC2=O)[C@@H](C)C[C@H]2OC(=O)C(=C)[C@H]12`, the ΔTm is -0.18 °C.
For `CC[C@@H](C)[C@@]1(O)O[C@H]2C[C@@]3(C)OC(=CC3=O)/C(COC(C)=O)=C\[C@H]3OC(=O)[C@@]1(C)[C@H]23`, the ΔTm was -0.86 °C.
Same read-out and setting: under `C=C1C(=O)O[C@@H]2/C=C(/C)C3=CC(=O)[C@@](C)(C[C@@H](OC(=O)/C(C)=C/C)[C@@H]12)O3` [ATRIPLICIOLIDTIGLATE] stands -0.47 °C.

The next experiment has as its system Leishmania donovani. As to the kind of experiment: Antileishmanial activity against Leishmania donovani MHOM/ET/67/L82 amastigotes after 72 hrs by Alamar Blue assay. As to conditions: MHOM/ET/67/L82, 72 h. It counts as functional, organism-based.
The compound `COc1cc(/C=C/C(=O)O)ccc1O` [FERULATE] registered an IC50 of 155 µM.
Same read-out and setting: next, `O=C(O)/C=C/c1ccccc1O` [O-COUMARIC ACID]: 36.6 µM.
The same measure, in the same setting: next, `C[C@@H]1O[C@@H](OC[C@H]2O[C@@H](Oc3c(-c4ccc(O)c(O)c4)oc4cc(O)cc(O)c4c3=O)[C@H](O)[C@@H](O)[C@@H]2O)[C@H](O)[C@H](O)[C@H]1O` [RUTIN]: 49.1 µM.

Another experiment concerns the target T1, Dihydroorotate dehydrogenase (fumarate) (Leishmania major). As to the kind of experiment: Binding affinity to Leishmania major DHODH assessed as change in melting temperature at 1000 uM by SYPRO orange dye-based differential scanning fluorimetry.
Conditions: not given
As for `C=C(C)C(=O)O[C@H]1C[C@@]2(C)OC(=CC2=O)[C@@H](C)C[C@H]2OC(=O)C(=C)[C@H]12`, the shift in melting temperature (ΔTm) is -0.45 °C.
For `CC[C@@H](C)[C@@]1(O)O[C@H]2C[C@@]3(C)OC(=CC3=O)/C(COC(C)=O)=C\[C@H]3OC(=O)[C@@]1(C)[C@H]23`, the ΔTm was -1.39 °C.
Take `C=C1C(=O)O[C@@H]2/C=C(/C)C3=CC(=O)[C@@](C)(C[C@@H](OC(=O)/C(C)=C/C)[C@@H]12)O3` [ATRIPLICIOLIDTIGLATE]: the ΔTm was -5.97 °C.

A further experiment has the same target. Nature of the experiment: Binding affinity to Leishmania major DHODH assessed as change in melting temperature at 100 uM by differential scanning fluorimetry-based ThermoFMN assay.
Conditions: not given
For the compound `C=C(C)C(=O)O[C@H]1C[C@@]2(C)OC(=CC2=O)[C@@H](C)C[C@H]2OC(=O)C(=C)[C@H]12`, the ΔTm was -0.27 °C.
On the same count and under the same terms, under `CC[C@@H](C)[C@@]1(O)O[C@H]2C[C@@]3(C)OC(=CC3=O)/C(COC(C)=O)=C\[C@H]3OC(=O)[C@@]1(C)[C@H]23` stands -0.41 °C.
Still for that read-out and setting: under `C=C1C(=O)O[C@@H]2/C=C(/C)C3=CC(=O)[C@@](C)(C[C@@H](OC(=O)/C(C)=C/C)[C@@H]12)O3` [ATRIPLICIOLIDTIGLATE] stands -0.35 °C.

A further experiment deals with T2, Dihydroorotate dehydrogenase (fumarate) (Leishmania major, UniProt Q4QEW7).
T2 sequence (Q4QEW7 whole entry): T1 sequence (whole entry)
Nature of the experiment: Inhibition of recombinant oligo-histidine-tagged Leishmania major DHODH expressed in Escherichia coli BL21(DE3) cells using DHO as substrate measured after 60 secs. As to conditions: read-out: IC50.
Take `C=C(C)C(=O)O[C@H]1C[C@@]2(C)OC(=CC2=O)[C@@H](C)C[C@H]2OC(=O)C(=C)[C@H]12`: the IC50 was 145 µM.
For the compound `CC[C@@H](C)[C@@]1(O)O[C@H]2C[C@@]3(C)OC(=CC3=O)/C(COC(C)=O)=C\[C@H]3OC(=O)[C@@]1(C)[C@H]23`, the IC50 was 1200 µM.
Still for that read-out and setting: next, `C=C1C(=O)O[C@@H]2/C=C(/C)C3=CC(=O)[C@@](C)(C[C@@H](OC(=O)/C(C)=C/C)[C@@H]12)O3` [ATRIPLICIOLIDTIGLATE]: 872 µM; `COc1cc(/C=C/C(=O)O)ccc1O` [FERULATE]: 413 µM; `O=C(O)/C=C/c1ccccc1O` [O-COUMARIC ACID]: 806 µM.
On the same count and under the same terms, next, `C[C@@H]1O[C@@H](OC[C@H]2O[C@@H](Oc3c(-c4ccc(O)c(O)c4)oc4cc(O)cc(O)c4c3=O)[C@H](O)[C@@H](O)[C@@H]2O)[C@H](O)[C@H](O)[C@H]1O` [RUTIN]: 1530 µM.

The next experiment concerns the target T1, Dihydroorotate dehydrogenase (fumarate) (Leishmania major). As to the kind of experiment: Binding affinity to Leishmania major DHODH assessed as change in melting temperature at 500 uM by differential scanning fluorimetry-based ThermoFMN assay.
Conditions: not given
Consider `C=C(C)C(=O)O[C@H]1C[C@@]2(C)OC(=CC2=O)[C@@H](C)C[C@H]2OC(=O)C(=C)[C@H]12`, for which the ΔTm was -0.22 °C.
Still for that read-out and setting: next, `CC[C@@H](C)[C@@]1(O)O[C@H]2C[C@@]3(C)OC(=CC3=O)/C(COC(C)=O)=C\[C@H]3OC(=O)[C@@]1(C)[C@H]23`: -0.65 °C; `C=C1C(=O)O[C@@H]2/C=C(/C)C3=CC(=O)[C@@](C)(C[C@@H](OC(=O)/C(C)=C/C)[C@@H]12)O3` [ATRIPLICIOLIDTIGLATE]: -0.85 °C.

The next experiment deals with Trypanosoma cruzi. Nature of the experiment: Antitrypanosomal activity against Trypanosoma cruzi Tulahuen C2C4 trypomastigotes infected in rat skeletal myoblasts L-6 cells after 96 hrs by CPRG/Nonidet reagent based spectrophotometric method. It counts as functional, organism-based. As to conditions: Tulahuen C2C4, L6, 96 h.
`COc1cc(/C=C/C(=O)O)ccc1O` [FERULATE] showed a half-maximal inhibitory concentration (IC50) of 155 µM.
Same read-out and setting: under `O=C(O)/C=C/c1ccccc1O` [O-COUMARIC ACID] stands 183 µM; under `C[C@@H]1O[C@@H](OC[C@H]2O[C@@H](Oc3c(-c4ccc(O)c(O)c4)oc4cc(O)cc(O)c4c3=O)[C@H](O)[C@@H](O)[C@@H]2O)[C@H](O)[C@H](O)[C@H]1O` [RUTIN], 49.1 µM.

For the next experiment, the target named is T1, Dihydroorotate dehydrogenase (fumarate) (Leishmania major). Nature of the experiment: Binding affinity to Leishmania major DHODH assessed as change in melting temperature at 1000 uM by differential scanning fluorimetry-based ThermoFMN assay.
Conditions: not given
As to `C=C(C)C(=O)O[C@H]1C[C@@]2(C)OC(=CC2=O)[C@@H](C)C[C@H]2OC(=O)C(=C)[C@H]12`, the ΔTm was -0.27 °C.
Same read-out and setting: next, `CC[C@@H](C)[C@@]1(O)O[C@H]2C[C@@]3(C)OC(=CC3=O)/C(COC(C)=O)=C\[C@H]3OC(=O)[C@@]1(C)[C@H]23`: -0.76 °C; `C=C1C(=O)O[C@@H]2/C=C(/C)C3=CC(=O)[C@@](C)(C[C@@H](OC(=O)/C(C)=C/C)[C@@H]12)O3` [ATRIPLICIOLIDTIGLATE]: -1.21 °C.
